{"source": "patent EP4566610A1", "about": "“SENOLYTIC COMPOUNDS” (Universidade de Santiago de Compostela, priority 2023, dated 2025)", "key": {"[1]": {"assay": "Crystal violet cell viability / IC50 assay in proliferative A549 cells", "assay_type": "cell-based, human", "details": "human, A549 tumor cells, non-treated (proliferating); untreated (proliferative) cells, at the tested concentration", "protocol": "(§1) Cell viability was tested by crystal violet staining as reported previously (Feoktistova et al. 2016). Both proliferative and senescent cells from different cell lines were plated at a concentration of 1,2 × 10^4 cells per well in a 96-well plate. After a 24 h incubation period, they were treated with Compound 96558 at decreasing concentrations (with DMSO as the control) and at various time points. Subsequently, cells were washed with phosphate-buffered saline (PBS, Merck) and fixed with paraformaldehyde (Electron Microscopy Science) prepared at 2% in PBS for 15 minutes, followed by a 5 min staining process using a 0.1% crystal violet solution in Milli-Q water. After staining, the excess dye was removed, washed 3 times with water, and air dried. Captured crystal violet was solubilized in 10% acetic acid and incubated on an orbital shaker at room temperature for 10 min. The absorbance was measured using a BioTek microplate reader equipped with Gen5 software.\n(§2) Cell viability was evaluated following the previously mentioned protocol of crystal violet staining. The IC50 calculations were performed using GraphPad Prism® software.\n(§3) First, we sought to validate the senolytic potential of the Candidate Compound within the same cell type and under the same conditions of senescence induction as employed during the high-throughput screening. To achieve this, we used A549 cells in which senescence was induced using bleomycin (20 µM; 5 days). Subsequently, following the confirmation of the senescent status of these cells in comparison to the proliferative control (Figure 8A), a cell viability assay was performed, employing crystal violet staining, as detailed in the Materials and Methods section.\n(§4) After evaluating the senolytic activity of the Candidate Compound at the same concentration used in the screening (Figure 9), we conducted further tests using a range of concentrations, from 100 µM to 0.3125 µM, in A549 tumor cells. […] In addition, we also assessed the drug's ability to affect cell viability at different time points (24, 48, and 72 hours) by renewing the Compound every 24 hours."}, "[2]": {"system": "A549 Bleomycin-Induced Senescent Cells", "assay": "Crystal violet cell viability / IC50 assay in bleomycin-induced senescent A549 cells", "assay_type": "cell-based, human", "details": "for IC50: Homo sapiens, A549", "protocol": "Navitoclax (ABT-263, Abbvie) was used as a positive control for senolysis. For chemotherapy-induced senescence we used Bleomycin (Mylan Pharmaceuticals) at 20 µM for 5 days. Alternatively, we also used 5 µM Palbociclib (MedChemExpress) for 7 days. Ionizing radiation at a dose of 10 Gy was applied to induce senescence. Doxycycline (Sigma), a stable tetracycline analogue, was used as an inducer for inducible expression systems at 1 µg/mL. Cell viability was tested by crystal violet staining as reported previously (Feoktistova et al. 2016). Both proliferative and senescent cells from different cell lines were plated at a concentration of 1,2 × 10^4 cells per well in a 96-well plate. After a 24 h incubation period, they were treated with Compound 96558 at decreasing concentrations (with DMSO as the control) and at various time points. […] After staining, the excess dye was removed, washed 3 times with water, and air dried. […] The absorbance was measured using a BioTek microplate reader equipped with Gen5 software. […] Cell viability was evaluated following the previously mentioned protocol of crystal violet staining. The IC50 calculations were performed using GraphPad Prism® software. First, we sought to validate the senolytic potential of the Candidate Compound within the same cell type and under the same conditions of senescence induction as employed during the high-throughput screening. To achieve this, we used A549 cells in which senescence was induced using bleomycin (20 µM; 5 days). Subsequently, following the confirmation of the senescent status of these cells in comparison to the proliferative control (Figure 8A), a cell viability assay was performed, employing crystal violet staining, as detailed in the Materials and Methods section. After evaluating the senolytic activity of the Candidate Compound at the same concentration used in the screening (Figure 9), we conducted further tests using a range of concentrations, from 100 µM to 0.3125 µM, in A549 tumor cells. These tests were performed both in their non-treated (proliferating) state and after the induction of senescence with Bleomycin. In addition, we also assessed the drug's ability to affect cell viability at different time points (24, 48, and 72 hours) by renewing the Compound every 24 hours."}, "[3]": {"system": "senescent A549 cells", "assay": "Apoptosis assay (Annexin V-FITC/7-AAD flow cytometry) in bleomycin-induced senescent A549 cells", "assay_type": "cell-based, human", "protocol": "(§5) A549 cells were resuspended into a single-cell suspension and plated at a density of 3 × 10^5 cells per well in six-well plates. After culturing for 24 h, the cells were treated with DMSO (control), the Compound, or a combination of pan-caspase inhibitor Z-VAD-FMK (Santa Cruz Biotech.) and the Compound. Following a 24 h incubation with the drugs, the cells were harvested by centrifugation at 3,000 rpm for 5 minutes and washed twice with PBS. Subsequently, the cells were resuspended in 500 µl of binding buffer. Then, 5 µl of Annexin V-FITC and 5 µl of 7-AAD (Elabscience) were used to detect the effect of Compound 96558 on cell apoptosis. The resulting samples were immediately analyzed by flow cytometry (FACScan, BD Biosciences), using the FITC channel (excitation: 488 nm and emission: 525 nm) and the 7-AAD channel (excitation: 488 nm and emission: 670 nm).\n(§6) To investigate the potential mechanism of cell death by which the compound eliminates senescent cells, we analyzed apoptosis induction. For this, we conducted a flow cytometry assay to evaluate Annexin-V staining on bleomycin-induced senescent cells treated or not with our senolytic Candidate."}, "[4]": {"system": "A549 proliferative cells", "assay": "Apoptosis assay (Annexin V-FITC/7-AAD flow cytometry) in proliferative A549 cells", "assay_type": "cell-based, human", "details": "10 µM, 24 h", "protocol": "as §5, §6"}, "[5]": {"system": "A549 tumor cells, non-treated (proliferating) state", "assay": "Crystal violet cell viability / IC50 assay in proliferative A549 cells", "assay_type": "cell-based, human", "protocol": "as §1, §2, §3, §4"}, "[6]": {"system": "U87MG cells induced into senescence with palbociclib", "assay": "Crystal violet cell viability / IC50 assay in palbociclib-induced senescent U87MG cells", "assay_type": "cell-based, human", "protocol": "(§7) Navitoclax (ABT-263, Abbvie) was used as a positive control for senolysis. For chemotherapy-induced senescence we used Bleomycin (Mylan Pharmaceuticals) at 20 µM for 5 days. Alternatively, we also used 5 µM Palbociclib (MedChemExpress) for 7 days. Ionizing radiation at a dose of 10 Gy was applied to induce senescence. Doxycycline (Sigma), a stable tetracycline analogue, was used as an inducer for inducible expression systems at 1 µg/mL.\nas §1, with “Captured crystal violet was solubilized in 10% acetic acid and incubated on an orbital shaker at room temperature for 10 min.” left out\nCell viability was evaluated following the previously mentioned protocol of crystal violet staining. […]"}, "[7]": {"system": "Radiation-Induced senescent A549cells", "assay": "Crystal violet cell viability / IC50 assay in ionizing radiation-induced senescent A549 cells", "assay_type": "cell-based, human", "details": "for concentration showing enhanced efficacy (greater cytotoxic effect on senescent cells than proliferating): ionizing radiation 10 Gy", "protocol": "as §7, §1, §2\nSubsequently, we aimed to assess the senolytic capability of our Compound using a senescence induction method different from the previous chemotherapy-induced approach. In this regard, we exposed A549 cells to ionizing radiation, confirmed the senescent status (Figure 8B) and conducted a similar assay as described previously."}, "[8]": {"system": "U87MG glioma cell line, proliferating cells", "assay": "Crystal violet cell viability / IC50 assay in proliferating U87MG cells", "assay_type": "cell-based", "details": "Homo sapiens, U-87 MG, read-out: quantity required to eliminate at least 50% of proliferative counterparts", "protocol": "as §1, §2\nTo thoroughly explore the senolytic potential of Compound 96558, we employed a different human tumor cell line, specifically the U87MG glioma cell line. […]"}}, "data": [{"smiles": "CC1(C)CCC(c2ccc(Cl)cc2)=C(CN2CCN(c3ccc(C(=O)NS(=O)(=O)c4ccc(N[C@H](CCN5CCOCC5)CSc5ccccc5)c(S(=O)(=O)C(F)(F)F)c4)cc3)CC2)C1", "note": "[Navitoclax, reference compound]", "values": [{"measurement": "viability", "setting": "[1]", "value": "~100", "unit": "%"}, {"measurement": "viability", "setting": "[2]; Bleomycin-induced senescent cells, at the tested concentration", "value": "significantly affected"}]}, {"smiles": "C#CC(=O)NCCNc1nc(C)nc(C)c1Br", "note": "[Compound 96558]", "values": [{"measurement": "apoptosis induction (FITC-Annexin V-positive and 7-AAD positive)", "setting": "[3]; Compound treatment versus DMSO, 24 h", "value": "a significant proportion of cells were in late apoptosis"}, {"measurement": "apoptosis induction (FITC-Annexin V and 7-AAD staining)", "setting": "[3]; combination with pan-caspase inhibitor Z-VAD-FMK", "value": "the majority of cells appeared as viable cells"}, {"measurement": "apoptosis induction", "setting": "[4]", "value": "apoptosis was not induced"}, {"measurement": "IC50 values observed for proliferative cells", "setting": "[5]; compared with senescent cells, 24, 48 and 72 hours", "value": "consistently higher"}, {"measurement": "viability", "setting": "[5]; proliferative cells, low concentrations, 24, 48, and 72 hours", "value": "intact viability"}, {"measurement": "IC50", "setting": "[6]; Homo sapiens, U-87 MG, senescent cells, palbociclib-induced", "value": 1.79, "unit": "µM"}, {"measurement": "senolytic index", "setting": "[6]; U87MG, IC50 proliferating over senescent", "value": 16.6}, {"measurement": "concentration with effective cytotoxicity in senescent cells with minimal impact on proliferative cells", "setting": "[2]; 24 hours, bleomycin 20 µM, 5 days", "value": "around 12.5 µM"}, {"measurement": "concentration effective for favorable senolytic effect", "setting": "[2]; 48 hours, Compound renewed every 24 hours", "value": 6.25, "unit": "µM"}, {"measurement": "most efficient concentration for senolytic effect", "setting": "[2]; 72 hours, Compound renewed every 24 hours", "value": 3.125, "unit": "µM"}, {"measurement": "senolytic index, the ratio between the IC50 values on proliferating cells over senescent ones", "setting": "[2]; A549, bleomycin, 24, 48, 72 hours", "value": "increases with time"}, {"measurement": "IC50", "setting": "[2]; senescent cells, 24-hour", "value": 3.73, "unit": "µM"}, {"measurement": "IC50", "setting": "[2]; senescent cells, 48 hours of treatment", "value": 1.83, "unit": "µM"}, {"measurement": "IC50", "setting": "[2]; senescent cells, 72 hours", "value": 1.41, "unit": "µM"}, {"measurement": "viability", "setting": "[2]; senescent cells, low concentrations, 24, 48, and 72 hours", "value": "efficient elimination of the senescent cells"}, {"measurement": "concentration showing enhanced efficacy (greater cytotoxic effect on senescent cells than proliferating)", "setting": "[7]; 24-hour", "value": "approximately 12.5 µM"}, {"measurement": "concentration showing enhanced efficacy (greater cytotoxic effect on senescent cells than proliferating)", "setting": "[7]; 48 hours", "value": 2500, "unit": "nM"}, {"measurement": "concentration showing enhanced efficacy (greater cytotoxic effect on senescent cells than proliferating)", "setting": "[7]; 72 hours", "value": 2500, "unit": "nM"}, {"measurement": "IC50 curves", "setting": "[7]; senescent versus proliferative counterparts, all examined conditions", "value": "lower Compound concentrations are required for the eradication of senescent cells"}, {"measurement": "IC50", "setting": "[8]", "value": 29.8, "unit": "µM"}]}]}
